Assay results as given in patent US20090105305A1, “Therapeutic Agents - 550” (AstraZeneca AB, priority 2006, published 2009).
pIC50: −log10 of the molar value.

Target: T1, human Fatty Acid Synthase (Homo sapiens, UniProt P49327)
T1 construct: made in house
Assay: Human FAS enzyme assay (decrease in NADPH fluorescence)
Type: biochemical
Details: for IC50s in the range of about 0.001 μM to about 30 μM: compounds excluded from the claims by proviso
Text: The compounds of the present invention are Fatty Acid Synthase inhibitors. […] Human and Rat FAS Enzyme Assay.
Fatty acid synthase is an enzyme complex that harbours seven enzymatic activities catalysing the reductive synthesis of long chain fatty acids from acetyl CoA and malonyl CoA to palmitate. When acetyl CoA and malonyl CoA are forming palmitate NADPH is consumed forming NADP. Since NADPH is fluorescent but not NADP the reaction can be measured by analysing the decrease in fluorescence.
Compounds were added to a black 384 well plate (Matrix) in a volume of 5 μl consisting of 20% DMSO and 80% Tris buffer pH 7.5, at a top concentration of 1 mM. NADPH, 30 μl of 166.6 μM, formulated in assay buffer (0.1M Tris ph7.5, 0.1 mM EDTA, 1 mM glutathione, 0.05% BSA), was then added to all of the wells of the plate. Fatty acid synthase Human or rat enzyme (0.4 μg, produced in house), dissolved in 20 mM Tris/HCl pH 7.5, 5 mM BOG, 1 mM TCEP, 10% glycerol, 1 mM EDTA, 150 mM NaCl, was then added to the plate in a volume of […]. Enzyme was added to all but the last two columns of the plate, to which, 10 μl of assay buffer was added (0.1M Tris ph7.5, 0.1 mM EDTA, 1 mM glutathione, 0.05% BSA) to provide a no enzyme assay control. Following a 15-minute incubation period, at room temperature, the plates were read on an Envision plate reader using 340 nm excitation and 460 nm emission filters. This served as a time zero background read. Substrates (an equal mix of both malonyl and acetyl CoA) were then added to the plates in a total volume of 5 μl. The concentrations of malonyl and acetyl CoA in the mixture were 500 μM and 150 μM respectively. Both were prepared as 10 mM stock solutions in distilled water and were subsequently diluted to working concentrations in assay buffer. Plates were then incubated for a further 60 minutes, at room temperature, before being read again on the Envision reader using the same parameters as previously used. The data was analysed by subtracting the background time zero data from that generated following the final 60 minute incubate and the percent inhibition compared to the maximum and minimum assay controls was determined. Sigmoid curves were fitted using Origin 7.5 Client software and IC50 values were determined.

[1] = % inhibition at a concentration of 100 micromolar

T1 sequence (P49327 whole entry): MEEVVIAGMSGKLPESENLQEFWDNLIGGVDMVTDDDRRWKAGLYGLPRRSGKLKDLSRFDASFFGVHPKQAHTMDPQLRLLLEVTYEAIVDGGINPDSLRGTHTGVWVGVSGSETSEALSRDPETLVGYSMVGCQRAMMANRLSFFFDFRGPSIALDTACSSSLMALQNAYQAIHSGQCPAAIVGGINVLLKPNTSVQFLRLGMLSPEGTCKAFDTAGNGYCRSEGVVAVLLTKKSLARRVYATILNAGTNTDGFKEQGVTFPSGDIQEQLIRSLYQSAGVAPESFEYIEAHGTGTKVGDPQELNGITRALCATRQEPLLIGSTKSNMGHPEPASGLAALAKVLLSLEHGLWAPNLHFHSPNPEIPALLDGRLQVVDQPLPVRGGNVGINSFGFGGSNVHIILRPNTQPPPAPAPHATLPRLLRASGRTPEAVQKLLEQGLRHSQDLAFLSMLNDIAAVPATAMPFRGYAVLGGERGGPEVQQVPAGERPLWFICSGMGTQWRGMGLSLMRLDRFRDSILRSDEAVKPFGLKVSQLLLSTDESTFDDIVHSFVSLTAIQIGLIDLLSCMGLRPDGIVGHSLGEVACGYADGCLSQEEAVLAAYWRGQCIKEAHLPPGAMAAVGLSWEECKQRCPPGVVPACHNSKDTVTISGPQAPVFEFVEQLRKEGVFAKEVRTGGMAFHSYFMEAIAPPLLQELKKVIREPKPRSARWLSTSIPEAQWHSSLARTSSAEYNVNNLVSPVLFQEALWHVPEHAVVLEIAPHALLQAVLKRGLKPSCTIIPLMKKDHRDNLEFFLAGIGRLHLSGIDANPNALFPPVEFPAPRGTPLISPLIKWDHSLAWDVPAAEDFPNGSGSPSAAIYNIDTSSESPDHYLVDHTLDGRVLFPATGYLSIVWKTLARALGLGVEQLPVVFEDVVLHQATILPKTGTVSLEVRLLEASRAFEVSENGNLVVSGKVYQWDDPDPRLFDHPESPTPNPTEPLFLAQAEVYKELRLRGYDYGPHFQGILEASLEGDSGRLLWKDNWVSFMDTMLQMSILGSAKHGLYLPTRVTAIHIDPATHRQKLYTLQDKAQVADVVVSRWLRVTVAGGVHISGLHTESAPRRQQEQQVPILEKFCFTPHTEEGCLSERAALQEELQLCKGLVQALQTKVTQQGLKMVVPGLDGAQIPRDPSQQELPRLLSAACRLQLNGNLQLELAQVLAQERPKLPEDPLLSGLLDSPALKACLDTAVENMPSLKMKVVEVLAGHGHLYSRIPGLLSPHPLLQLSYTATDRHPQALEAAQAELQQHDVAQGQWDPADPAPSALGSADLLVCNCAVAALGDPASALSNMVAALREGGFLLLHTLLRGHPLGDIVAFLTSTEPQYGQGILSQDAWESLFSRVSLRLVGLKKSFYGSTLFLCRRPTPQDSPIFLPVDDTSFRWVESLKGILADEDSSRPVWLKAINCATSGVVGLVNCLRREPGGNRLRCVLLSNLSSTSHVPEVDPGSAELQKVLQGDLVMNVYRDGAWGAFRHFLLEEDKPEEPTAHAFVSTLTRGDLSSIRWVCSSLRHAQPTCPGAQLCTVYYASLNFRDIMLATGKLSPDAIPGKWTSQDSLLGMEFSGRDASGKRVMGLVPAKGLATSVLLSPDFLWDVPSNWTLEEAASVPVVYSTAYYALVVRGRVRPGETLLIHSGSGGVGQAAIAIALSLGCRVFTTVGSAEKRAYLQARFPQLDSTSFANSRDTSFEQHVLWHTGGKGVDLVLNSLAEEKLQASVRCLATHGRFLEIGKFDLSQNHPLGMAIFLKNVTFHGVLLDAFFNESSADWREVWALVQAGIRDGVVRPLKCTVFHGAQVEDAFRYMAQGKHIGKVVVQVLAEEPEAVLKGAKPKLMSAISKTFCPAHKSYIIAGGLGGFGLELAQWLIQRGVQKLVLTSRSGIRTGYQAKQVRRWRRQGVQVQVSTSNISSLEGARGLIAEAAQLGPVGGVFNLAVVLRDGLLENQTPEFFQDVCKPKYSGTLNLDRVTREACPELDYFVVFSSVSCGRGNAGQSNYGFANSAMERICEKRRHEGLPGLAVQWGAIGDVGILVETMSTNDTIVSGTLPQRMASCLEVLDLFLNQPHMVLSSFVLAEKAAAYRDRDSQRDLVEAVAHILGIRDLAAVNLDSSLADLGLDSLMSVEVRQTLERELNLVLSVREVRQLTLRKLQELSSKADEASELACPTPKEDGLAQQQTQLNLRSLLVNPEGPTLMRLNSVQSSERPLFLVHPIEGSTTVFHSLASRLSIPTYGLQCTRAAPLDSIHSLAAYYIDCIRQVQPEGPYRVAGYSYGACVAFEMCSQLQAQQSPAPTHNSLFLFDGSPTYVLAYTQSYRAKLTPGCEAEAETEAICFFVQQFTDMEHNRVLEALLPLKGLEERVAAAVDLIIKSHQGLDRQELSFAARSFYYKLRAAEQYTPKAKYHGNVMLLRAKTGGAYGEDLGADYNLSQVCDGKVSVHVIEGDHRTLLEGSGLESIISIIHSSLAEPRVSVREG

SMILES	inhibition at 100 µM [1] [%]	also measured
Cc1ccc(C(=O)N2CCC(c3ccc(N(C)S(C)(=O)=O)cc3)CC2)cc1NS(C)(=O)=O [Example 230, N-[2-methyl-5-[4-[4-(methyl-methylsulfonylamino)phenyl]piperidine-1-carbonyl]phenyl]methanesulfonamide]	73.2	–
Cc1ccc(C(=O)N2CCC(O)(c3ccc(Cl)cc3)CC2)cc1NS(C)(=O)=O [N-[5-[4-(4-chlorophenyl)-4-hydroxypiperidine-1-carbonyl]-2-methylphenyl]methanesulfonamide]	–	IC50s in the range of about 0.001 μM to about 30 μM: do not have IC50s in the range of about 0.001 μM to about 30 μM
Cc1ccc(NS(=O)(=O)CC(C)C)cc1C(=O)N1CCC(c2ccc(C#N)cc2)CC1 [Example 57, N-[3-[4-(4-cyanophenyl)piperidine-1-carbonyl]-4-methyl-phenyl]-2-methyl-propane-1-sulfonamide]	94	–
COCCNc1ccc(S(=O)(=O)Nc2cc(C(=O)N3CCC(c4ccc(C#N)cc4)CC3)ccc2C)cn1 [Example 103, N-[5-[4-(4-cyanophenyl)piperidine-1-carbonyl]-2-methyl-phenyl]-6-(2-methoxyethylamino)pyridine-3-sulfonamide]	98	–
Cc1ccc(C(=O)N2CCC(c3ccc(C#N)cc3)CC2)cc1NS(=O)(=O)c1c(Cl)nc2sccn12 [Example 101, 7-chloro-N-[5-[4-(4-cyanophenyl)piperidine-1-carbonyl]-2-methyl-phenyl]-4-thia-1,6-diazabicyclo[3.3.0]octa-2,5,7-triene-8-sulfonamide]	98	–
Cc1ccc(NS(=O)(=O)Cc2ccccc2)cc1C(=O)N1CCC(c2ccc(C#N)cc2)CC1 [Example 8, N-[3-[4-(4-cyanophenyl)piperidine-1-carbonyl]-4-methyl-phenyl]-1-phenyl-methanesulfonamide]	82	–
Cc1ccc(C(=O)N2CCC(c3ccc(C(N)=O)cc3)CC2)cc1NS(C)(=O)=O [Example 112, 4-[1-(3-methanesulfonamido-4-methyl-benzoyl)-4-piperidyl]benzamide]	79	–
Cc1ccc(C(=O)N2CCC(c3ccc(C#N)cc3)CC2)cc1NS(=O)(=O)C(C)CO (centres unmarked) [Example 138, N-[5-[4-(4-cyanophenyl)piperidine-1-carbonyl]-2-methyl-phenyl]-1-hydroxy-propane-2-sulfonamide]	100	–
CS(=O)(=O)Nc1cc(C(=O)N2CCC(c3ccc(C#N)cc3)CC2)ccc1OC(F)(F)F [N-[5-[4-(4-cyanophenyl)piperidine-1-carbonyl]-2-(trifluoromethoxy)phenyl]methanesulfonamide]	–	IC50s in the range of about 0.001 μM to about 30 μM: do not have IC50s in the range of about 0.001 μM to about 30 μM
COCCCS(=O)(=O)Nc1cc(C(=O)N2CCC(c3ccc(C#N)cc3)CC2)ccc1C [Example 110, N-[5-[4-(4-cyanophenyl)piperidine-1-carbonyl]-2-methyl-phenyl]-3-methoxy-propane-1-sulfonamide]	86	–
Cc1ccc(C(=O)N2CCC(c3ccc(SC(F)(F)F)cc3)CC2)cc1NS(C)(=O)=O [Example 232, N-[2-methyl-5-[4-[4-(trifluoromethylsulfanyl)phenyl]piperidine-1-carbonyl]phenyl]methanesulfonamide]	88.9	–
CCCC(=O)NCc1ccc(C2CCN(C(=O)c3ccc(C)c(NS(C)(=O)=O)c3)CC2)cc1 [Example 235, N-[[4-[1-(3-methanesulfonamido-4-methylbenzoyl)piperidin-4-yl]phenyl]methyl]butanamide]	72.8	–
COC(=O)CCS(=O)(=O)Nc1cc(C(=O)N2CCC(c3ccc(C#N)cc3)CC2)ccc1C [Example 144, Methyl 3-[[5-[4-(4-cyanophenyl)piperidine-1-carbonyl]-2-methyl-phenyl]sulfamoyl]propanoate]	88	–
Cc1ccc(C(=O)N2CCC(c3ccc(C(=O)N4CCOCC4)cc3)CC2)cc1NS(C)(=O)=O [Example 231, N-[2-methyl-5-[4-[4-(morpholine-4-carbonyl)phenyl]piperidine-1-carbonyl]phenyl]methanesulfonamide]	86.1	–
Cc1ccc(C(=O)N2CCC(c3ccc(-c4ncccn4)cc3)CC2)cc1NS(C)(=O)=O [N-[2-methyl-5-[4-(4-pyrimidin-2-ylphenyl)piperidine-1-carbonyl]phenyl]methanesulfonamide]	–	IC50s in the range of about 0.001 μM to about 30 μM: do not have IC50s in the range of about 0.001 μM to about 30 μM
Cc1ccc(C(=O)N2CCC(O)(c3ccc(C#N)cc3)CC2)cc1NS(=O)(=O)Cc1ccccc1 [Example 70, N-[5-[4-(4-cyanophenyl)-4-hydroxy-piperidine-1-carbonyl]-2-methyl-phenyl]-1-phenyl-methanesulfonamide]	87	–
Cc1ccc(C(=O)N2CCC(c3ccc(-c4nccs4)cc3)CC2)cc1NS(C)(=O)=O [Example 170, N-[2-methyl-5-[4-[4-(1,3-thiazol-2-yl)phenyl]piperidine-1-carbonyl]phenyl]methanesulfonamide]	74	–
Cc1ccc(C(=O)N2CCC(c3ccc(CCCC(=O)O)cc3)CC2)cc1NS(=O)(=O)C1CCCCC1 [Example 246, 4-[4-[[13-(cyclohexylsulfonylamino)-4-methylbenzoyl]piperidin-4-yl]phenyl]butanoic acid]	–	Inhib % [1]: 92.8%
COc1ccccc1S(=O)(=O)Nc1cc(C(=O)N2CCC(c3ccc(C#N)cc3)CC2)ccc1C [Example 25, N-[5-[4-(4-cyanophenyl)piperidine-1-carbonyl]-2-methyl-phenyl]-2-methoxy-benzenesulfonamide]	87	–
CCC1(CS(=O)(=O)Nc2cc(C(=O)N3CCC(c4ccc(C#N)cc4)CC3)ccc2C)NC(=O)NC1=O (centres unmarked) [Example 148, N-[5-[4-(4-cyanophenyl)piperidine-1-carbonyl]-2-methyl-phenyl]-1-(4-ethyl-2,5-dioxo-imidazolidin-4-yl)methanesulfonamide]	100	–
Cc1ccc(C(=O)N2CCC(c3ccc(C#N)cc3)CC2)cc1NS(=O)(=O)CC(=O)O [Example 130, 2-[[5-[4-(4-cyanophenyl)piperidine-1-carbonyl]-2-methyl-phenyl]sulfamoyl]acetic acid]	77	–
COCCS(=O)(=O)Nc1cc(C(=O)N2CCC(c3ccc(C#N)cc3)CC2)ccc1C [Example 105, N-[5-[4-(4-cyanophenyl)piperidine-1-carbonyl]-2-methyl-phenyl]-2-methoxy-ethanesulfonamide]	89	–
Cc1ccc(C(=O)N2CCC(c3ccc(C#CCCCO)cc3)CC2)cc1NS(C)(=O)=O [Example 250, N-[5-[4-[4-(5-hydroxypent-1-ynyl)phenyl]piperidine-1-carbonyl]-2-methylphenyl]methanesulfonamide]	–	pIC50 (unit inferred): 5.84
Cc1ccc(C(=O)N2CCC(c3ccc(C(N)=NO)cc3)CC2)cc1NS(C)(=O)=O [Example 214, N′-hydroxy-4-[1-(3-methanesulfonamido-4-methylbenzoyl)piperidin-4-yl]benzene-carboximidamide]	85	–
Cc1ccc(C(=O)N2CCC(c3ccc(CNC(=O)CO)cc3)CC2)cc1NS(C)(=O)=O [Example 241, 2-hydroxy-N-[[4-[1-(3-methanesulfonamido-4-methylbenzoyl)piperidin-4-yl]phenyl]methyl]acetamide]	81.5	–
CNC(=O)c1cccc(S(=O)(=O)Nc2cc(C(=O)N3CCC(c4ccc(C#N)cc4)CC3)ccc2C)c1 [Example 83, 3-[[5-[4-(4-cyanophenyl)piperidine-1-carbonyl]-2-methyl-phenyl]sulfamoyl]-N-methyl-benzamide]	98	–
COc1ccc(CNC(=O)c2ccccc2S(=O)(=O)Nc2cc(C(=O)N3CCC(c4ccc(C#N)cc4)CC3)ccc2C)c(OC)c1 [2-[[5-[4-(4-cyanophenyl)piperidine-1-carbonyl]-2-methylphenyl]sulfamoyl]-N-[(2,4-dimethoxyphenyl)methyl]benzamide]	–	IC50s in the range of about 0.001 μM to about 30 μM: do not have IC50s in the range of about 0.001 μM to about 30 μM
COC(=O)CS(=O)(=O)Nc1ccc(C)c(C(=O)N2CCC(c3ccc(C#N)cc3)CC2)c1 [Example 38, methyl 2-[[3-[4-(4-cyanophenyl)piperidine-1-carbonyl]-4-methyl-phenyl]sulfamoyl]acetate]	83	–
Cc1ccc(C(=O)N2CCC(c3ccc(C#N)cc3)CC2)cc1NS(=O)(=O)c1ccccc1C(=O)NCCO [Example 207, 2-[[5-[4-(4-cyanophenyl)piperidine-1-carbonyl]-2-methylphenyl]sulfamoyl]-N-(2-hydroxyethyl)benzamide]	75	–
